According to ChEMBL document CHEMBL1130002, “Synthesis and biological evaluation of the 1,5-diarylpyrazole class of cyclooxygenase-2 inhibitors: identification of 4-[5-(4-methylphenyl)-3-(trifluoromethyl)-1H-pyrazol-1-yl]benze nesulfonamide (SC-58635, celecoxib)” (J Med Chem, 1997):

Species: Rattus norvegicus
Test: animal or person
Format: functional
Settings: not given

With `NS(=O)(=O)c1ccc(-n2nc(C(F)(F)F)cc2-c2ccc(Cl)cc2)cc1` the ED50 was 6.6 mg/kg.

System: not listed separately
Test: in vivo
Settings: male, rat, iv, 10 mg/kg

`NS(=O)(=O)c1ccc(-n2nc(C(F)F)cc2-c2ccc(Cl)cc2)cc1` and `COc1ccc(-c2cc(C(F)F)nn2-c2ccc(S(N)(=O)=O)cc2)cc1F` [DERACOXIB] are within 1.5-fold of each other in half-life: 4.5 h for the first, 3.5 h for the second.

Compared with `Cc1ccc(-c2cc(C(F)(F)F)nn2-c2ccc(S(N)(=O)=O)cc2)cc1` [CELECOXIB], `CS(=O)(=O)c1ccc(-n2nc(C(F)(F)F)cc2-c2ccc(F)cc2)cc1` [SC-58125] is 63-fold higher in half-life: 3.5 h for the first, 221 h for the second.

System: not listed separately
Test: in vivo
Settings: male, rat, po, 20 mg/kg

`NS(=O)(=O)c1ccc(-n2nc(C(F)(F)F)cc2-c2ccc(Cl)cc2)cc1` showed a half-life of 117 h.

System: not listed separately
Test: in vivo
Settings: male, rat, po, 10 mg/kg

`COc1ccc(-c2cc(C(F)(F)F)nn2-c2ccc(S(N)(=O)=O)cc2)cc1` gave a half-life of 5.6 h.

Species: Rattus norvegicus
Test: animal or person
Format: functional
Settings: not given
Remark: another data set of the same source

Compared with `NS(=O)(=O)c1ccc(-n2nc(C(F)(F)F)c(Cl)c2-c2ccc(Cl)cc2)cc1`, `NS(=O)(=O)c1ccc(-n2nc(C(F)(F)F)cc2-c2ccc(Cl)cc2)cc1` is 1.6-fold lower in ED50: 8.8 mg/kg for the first, 5.4 mg/kg for the second.

Compared with `Cc1ccc(-c2cc(C(F)F)nn2-c2ccc(S(N)(=O)=O)cc2)cc1`, `NS(=O)(=O)c1ccc(-n2nc(C(F)F)cc2-c2ccc(Cl)cc2)cc1` is 5.4-fold higher in ED50: 2.4 mg/kg for the first, 13 mg/kg for the second.

`COc1ccc(-c2cc(C(F)F)nn2-c2ccc(S(N)(=O)=O)cc2)cc1` and `COc1ccc(-c2cc(C(F)F)nn2-c2ccc(S(N)(=O)=O)cc2)cc1F` [DERACOXIB] are within 1.5-fold of each other in ED50: 13.7 mg/kg for the first, 18.6 mg/kg for the second.

`N#Cc1cc(-c2ccc(F)cc2)n(-c2ccc(S(N)(=O)=O)cc2)n1` and `Cc1ccc(-c2cc(C(F)(F)F)nn2-c2ccc(S(N)(=O)=O)cc2)cc1` [CELECOXIB] are within 1.5-fold of each other in ED50: 7.5 mg/kg for the first, 7.1 mg/kg for the second.

`COc1ccc2c(c1)c(CC(=O)O)c(C)n2C(=O)c1ccc(Cl)cc1` [INDOMETHACIN] and `COc1ccc2cc([C@H](C)C(=O)O)ccc2c1` [NAPROXEN] are within 1.5-fold of each other in ED50: 1.15 mg/kg for the first, 1.6 mg/kg for the second.

Compared with `CN1C(C(=O)Nc2ccccn2)=C(O)c2ccccc2S1(=O)=O` [PIROXICAM], `CS(=O)(=O)c1ccc(-n2nc(C(F)(F)F)cc2-c2ccc(F)cc2)cc1` [SC-58125] is 4.4-fold higher in ED50: 2.4 mg/kg for the first, 10.5 mg/kg for the second.

Species: Rattus norvegicus
Test: animal or person
Settings: read-out: Inhibition
Description: Percent inhibition was determined in vivo in male Dawley rats at a dose of 10 mg/kg by rat carrageenan-induced hyperalgesia assay

First: COc1ccc2cc([C@H](C)C(=O)O)ccc2c1 [NAPROXEN]
Second: CN1C(C(=O)Nc2ccccn2)=C(O)c2ccccc2S1(=O)=O [PIROXICAM]
The inhibition in vivo at 10 mg/kg of the first is higher: 66% for the first, 52% for the second.

System: not listed separately
Test: in vivo
Settings: male, rat, po, 10 mg/kg
Remark: another data set of the same source

`Cc1ccc(-c2cc(C(F)F)nn2-c2ccc(S(N)(=O)=O)cc2)cc1` showed a half-life of 3.3 h.

Species: Rattus norvegicus
Test: animal or person
Format: functional
Settings: not given
Remark: another data set of the same source

Going from `NS(=O)(=O)c1ccc(-n2nc(C(F)(F)F)c(Cl)c2-c2ccc(Cl)cc2)cc1` to `NS(=O)(=O)c1ccc(-n2nc(C(F)(F)F)cc2-c2ccc(Cl)cc2)cc1`, the ED50 rises from 0.006 mg/kg to 0.07 mg/kg (12-fold).

Compared with `Cc1ccc(-c2cc(C(F)F)nn2-c2ccc(S(N)(=O)=O)cc2)cc1`, `NS(=O)(=O)c1ccc(-n2nc(C(F)F)cc2-c2ccc(Cl)cc2)cc1` is 1.8-fold higher in ED50: 0.35 mg/kg for the first, 0.63 mg/kg for the second.

Going from `COc1ccc(-c2cc(C(F)F)nn2-c2ccc(S(N)(=O)=O)cc2)cc1` to `COc1ccc(-c2cc(C(F)F)nn2-c2ccc(S(N)(=O)=O)cc2)cc1F` [DERACOXIB], the ED50 rises from 0.01 mg/kg to 0.05 mg/kg (5-fold).

`N#Cc1cc(-c2ccc(F)cc2)n(-c2ccc(S(N)(=O)=O)cc2)n1` and `Cc1ccc(-c2cc(C(F)(F)F)nn2-c2ccc(S(N)(=O)=O)cc2)cc1` [CELECOXIB] are within 1.5-fold of each other in ED50: 0.51 mg/kg for the first, 0.37 mg/kg for the second.

Going from `COc1ccc2c(c1)c(CC(=O)O)c(C)n2C(=O)c1ccc(Cl)cc1` [INDOMETHACIN] to `CS(=O)(=O)c1ccc(-n2nc(C(F)(F)F)cc2-c2ccc(F)cc2)cc1` [SC-58125], the ED50 rises from 0.11 mg/kg to 0.41 mg/kg (3.7-fold).

Species: Rattus norvegicus
Test: animal or person
Format: functional
Settings: not given
Remark: another data set of the same source

Going from `Cc1ccc(-c2cc(C(F)F)nn2-c2ccc(S(N)(=O)=O)cc2)cc1` to `NS(=O)(=O)c1ccc(-n2nc(C(F)F)cc2-c2ccc(Cl)cc2)cc1`, the ED50 falls from 37.3 mg/kg to 7.7 mg/kg (4.8-fold).

`COc1ccc(-c2cc(C(F)F)nn2-c2ccc(S(N)(=O)=O)cc2)cc1` and `COc1ccc(-c2cc(C(F)F)nn2-c2ccc(S(N)(=O)=O)cc2)cc1F` [DERACOXIB] are within 1.5-fold of each other in ED50: 36 mg/kg for the first, 33 mg/kg for the second.

Going from `N#Cc1cc(-c2ccc(F)cc2)n(-c2ccc(S(N)(=O)=O)cc2)n1` to `Cc1ccc(-c2cc(C(F)(F)F)nn2-c2ccc(S(N)(=O)=O)cc2)cc1` [CELECOXIB], the ED50 falls from 67.1 mg/kg to 34.5 mg/kg (1.9-fold).

Going from `COc1ccc2c(c1)c(CC(=O)O)c(C)n2C(=O)c1ccc(Cl)cc1` [INDOMETHACIN] to `CS(=O)(=O)c1ccc(-n2nc(C(F)(F)F)cc2-c2ccc(F)cc2)cc1` [SC-58125], the ED50 rises from 4.1 mg/kg to 58.3 mg/kg (14-fold).

Species: Rattus norvegicus
Test: not given
Format: functional, Stomach
Settings: not given

First: COc1ccc2c(c1)c(CC(=O)O)c(C)n2C(=O)c1ccc(Cl)cc1 [INDOMETHACIN]
Second: COc1ccc2cc([C@H](C)C(=O)O)ccc2c1 [NAPROXEN]
The Ulceration of the first is 36-fold lower: 7 mg/kg for the first, 255 mg/kg for the second.
